{
  "source": "patent US20220287993A1",
  "about": "“PHARMACEUTICAL COMPOSITION COMPRISING HDAC INHIBITOR AND ANTI-PD1 ANTIBODY OR ANTI PD-L1 ANTIBODY” (CRYSTALGENOMICS, INC., priority 2019, published 2022)",
  "test_system": "Hepal-6 hepatoma cells",
  "experiment": "Tumor growth inhibition rate in mouse model (Hepal-6 hepatoma cells transplanted into C57BL/6 mice)",
  "format": "in vivo, mice (C57BL/6)",
  "procedure": "(E)-N1-(3-(dimethylamino)propyl)-N8-hydroxy-2-((naphthalen-1-yloxy)methyl)-2-octenediamide phosphate (CG-745, CAS No. 2173017-02-0) was used as the alkylcarbamoyl naphthalenyloxy octenoyl hydroxyamide compound, and BP0146 (BioXcell, West Lebanon, N.H., USA) was used as the anti-PD-1 antibody.\n1×10^6 Hepal-6 hepatoma cells were injected into the left flank of 6-week-old C57BL6 mice. After 5 days, they were separated into 4 groups for administration of the vehicle, CG-745 alone, the anti-PD-1 antibody alone, or a combination of CG-745 and the anti-PD-1 antibody. The tumor volume was defined as (long axis)×(short axis)^2×0.5. […] Vehicle, CG-745, and the anti-PD-1 antibody were administered intraperitoneally (I.P). CG-745 was administered at a dose of 20 mg/kg for 5 consecutive days followed by 2 days of rest (1 treatment cycle) and the treatment cycle was repeated 3 times. The anti-PD-1 antibody was administered once at a dose of 5 mg/kg together with CG-745 on the fifth day of the first treatment cycle of CG-745.\nThe average inhibition rate of tumor growth for 9 mice is shown in FIG. 1, and the results for each of 9 mice are shown in FIG. 2.",
  "data": [
    {"compound": "CN(C)CCCNC(=O)/C(=C/CCCCC(=O)NO)COc1cccc2ccccc12.O=P(O)(O)O", "note": "[Comparative Example 1, (E)-N1-(3-(dimethylamino)propyl)-N8-hydroxy-2-((naphthalen-1-yloxy)methyl)-2-octenediamide phosphate]", "values": [
      {"measurement": "tumor growth inhibition rate", "setting": "Day 32, average of 9 mice, CG-745 20 mg/kg I.P. 5 days on/2 days off x 3 cycles, anti-PD-1 antibody 5 mg/kg I.P. once", "value": 73.8, "unit": "%"},
      {"measurement": "number of mice in which the tumor disappeared", "setting": "of 9 mice per group, same dosing as the tumor growth inhibition rate", "value": 4, "unit": "mice"}
    ]}
  ]
}
